The values that follow are results of earlier work, collected in patent US11014971B2, “Peptibodies, compositions thereof, and methods of treating atrial fibrillation” (University of South Florida, priority 2016, dated 2021).

In one data set the target is T1, IKACh (Homo sapiens, UniProt P48544+P48549).
T1 sequence (P48549 1-501): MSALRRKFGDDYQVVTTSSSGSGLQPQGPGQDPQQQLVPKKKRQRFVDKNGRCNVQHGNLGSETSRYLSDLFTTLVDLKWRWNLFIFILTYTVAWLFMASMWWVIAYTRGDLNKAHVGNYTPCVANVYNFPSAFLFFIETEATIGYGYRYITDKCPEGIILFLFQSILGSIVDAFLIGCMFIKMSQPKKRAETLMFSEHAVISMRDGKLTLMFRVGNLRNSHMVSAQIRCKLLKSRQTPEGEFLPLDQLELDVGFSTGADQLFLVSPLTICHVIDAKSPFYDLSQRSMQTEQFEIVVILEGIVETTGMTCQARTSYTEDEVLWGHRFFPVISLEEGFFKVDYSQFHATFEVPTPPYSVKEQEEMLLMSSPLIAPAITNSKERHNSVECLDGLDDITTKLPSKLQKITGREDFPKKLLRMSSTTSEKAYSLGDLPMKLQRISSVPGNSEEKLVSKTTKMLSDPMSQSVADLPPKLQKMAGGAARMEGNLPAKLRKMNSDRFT
T1 sequence (P48544 1-419): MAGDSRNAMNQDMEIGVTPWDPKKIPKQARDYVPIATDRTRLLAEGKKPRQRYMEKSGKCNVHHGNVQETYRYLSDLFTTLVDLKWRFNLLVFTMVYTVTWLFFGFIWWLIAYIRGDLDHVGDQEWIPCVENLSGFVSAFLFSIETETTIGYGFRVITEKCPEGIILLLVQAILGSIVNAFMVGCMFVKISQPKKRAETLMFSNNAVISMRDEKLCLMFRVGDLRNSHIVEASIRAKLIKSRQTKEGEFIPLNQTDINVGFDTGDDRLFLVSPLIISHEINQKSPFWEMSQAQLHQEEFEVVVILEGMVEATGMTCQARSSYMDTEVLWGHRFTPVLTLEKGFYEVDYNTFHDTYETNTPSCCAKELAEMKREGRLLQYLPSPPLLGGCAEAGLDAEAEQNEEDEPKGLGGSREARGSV

The test system of data set [1] is paroxysmal AF and atrial flutter in patients.
The subject of data set [2] is atrial action potential in a normal heart.

Turning to `Cc1cc(CO)nc2cc3c(cc12)OC(C)(C)[C@H](O)[C@H]3NCCc1ccccc1` [NTC-801], the “Concentrations at which IKACh is selectively inhibited” value at IKACh is recorded as “submicromolar”. The “Reversion of paroxysmal AF in patients” value in data set [1] (paroxysmal AF) is “failed to revert”. In the case of Tertiapin, the “Effect on the action potential duration in normal atria” value in data set [2] is reported as “minimal effects”. Regarding `Cc1cc(C(=O)N(C)[C@H](CN2CC(O)C2)C(C)C)ccc1F` [AZD2927], the “Concentrations at which IKACh is selectively inhibited” value on IKACh was “submicromolar”. In data set [1] (atrial flutter), the “Reversion of atrial flutter in patients” value was “failed to revert”.
